# Data reported in patent US5955082A, “Insecticidal factor from field peas” (Her Majesty the Queen in right of Canada, as represented by …, priority 1997, dated 1999).
# Tests used:
# rice weevil = assay: Flour disk feeding bioassay; format: in vivo, Sitophilus oryzae (L.)
# Description: The rice weevil [Sitophilus oryzae (L.)] was used for all bioassays. One ml of an aqueous solution containing test material was mixed with 200 mg wheat flour. Distilled water was used as a control. Approximately 100 μl of the stirred suspension were removed and placed in the bottom of a polystyrene Petri dish, and allowed to air dry overnight at room temperature to produce the flour disks. The disks were equilibrated at 30±1° C. and 70±5% r.h. for 24 hr to stabilize the moisture content. Individual weighed disks and 5 adult beetles (1 to 7 days old, starved for 24 hrs before use) were transferred to petri dishes and kept at 30±1° C. and 70±5% r.h. for 4 days (5 replicates) before the remains of the flour disk were weighed.
# Saponins, characterized by their bitter taste, foaming in aqueous solutions and haemolytic activity, are a diverse group of secondary plant metabolites containing a carbohydrate moiety (mono- or oligosaccharide) attached to either a steroid (C27) or a triterpenoid (C30). Saponins are reported to have insecticidal activity. Saponin extractions were prepared from the seeds of commercial peas (Pisum sativum). Approximately 100 g seeds were milled with a Stein mill for 5 minutes and 10 g flour was extracted with 1000 ml chloroform for 16 hrs in a Soxhlet extractor to remove pigments and lipids. Three hundred mg air-dried defatted flour was refluxed for 5 min with 60 ml 80% MeOH, then transferred to a centrifuge tube with 2×5 ml 80% MeOH rinse. The slurry extracts were centrifuged at 10,000 rpm for 10 min. The pellet was dried at room temperature for testing the residual insecticidal activities and the supernatant was evaporated to 7-8 ml under reduced pressure in a rotary evaporator at 37° C. The solution and additional 3 ml distilled water rinse were applied to a reverse phase C18 cartridge (Sep Pak, C18). The column was washed with 3×5 ml 30% MeOH then eluted with 4×5 ml MeOH. The MeOH elute was evaporated to dryness in a rotary evaporator, and then dissolved in 6 ml distilled water (at a concentration equivalent to 50 mg defatted flour per ml). This extract was used for bioassay.
# One ml saponin extract (50 mg equivalent/ml) was loaded on ion exchange columns (2 ml volume) with Dowex AG-SOW [H^+ ] and Dowex AG-1 [Cl^- ] respectively. The columns were eluted with 10 ml distilled water. The water elute was evaporated to dryness in a rotary evaporator, and then dissolve in 1 ml distilled water. The water fractions were used for HPLC analysis and bioassay.
# The bioassays were as described in the preceding example.
# S. oryzae = assay: Wheat flour disk feeding bioassay of lectins and trypsin inhibitors; format: in vivo; conditions: for Feeding Rate (% of Control): 1% w/w in wheat flour disk; for Activity against S. oryzae: native form, 1% w/w
# Description: Lectins and trypsin inhibitors shown in Table 20 were assayed in their native form to determine their activity against S. oryzae in the wheat flour disk bioassay.
molecule,measurement,setting,value
CC1OC(OC2C(OC3C(OC4CCC5(C)C(CCC6(C)C5CC=C5C7CC(C)(C)CC(O)C7(C)CCC56C)C4(C)CO)OC(C(=O)O)C(O)C3O)OC(CO)C(O)C2O)C(O)C(O)C1O (centres unmarked) [Soyasaponin I],Food consumption,rice weevil; 0.63 mg/g,0.52 mg/day/insect
same,"Food consumption, % of control",rice weevil; 0.63 mg/g,99.8%
same,Food consumption,rice weevil; 1.25 mg/g,0.44 mg/day/insect
same,"Food consumption, % of control",rice weevil; 1.25 mg/g,84.2%
same,Food consumption,rice weevil; 2.50 mg/g,0.43 mg/day/insect
same,"Food consumption, % of control",rice weevil; 2.50 mg/g,82.8%
same,Food consumption,rice weevil; 5.00 mg/g,0.46 mg/day/insect
same,"Food consumption, % of control",rice weevil; 5.00 mg/g,88.4%
same,Food consumption,rice weevil; 10.0 mg/g,0.51 mg/day/insect
same,"Food consumption, % of control",rice weevil; 10.0 mg/g,97.9%
same,Activity against the test insect,rice weevil; ~0.6 mg/g and up to 10 mg/g,not active
Concanavalin A,Feeding Rate (% of Control),S. oryzae,82.5%
same,Activity against S. oryzae,S. oryzae,weakly active
Soybean trypsin inhibitor,Feeding Rate (% of Control),S. oryzae,98.7%
same,Activity against S. oryzae,S. oryzae,inactive
"Pea lectin: pea lectin, native form (protein, UniProt P02867 31-217; P02867 218-275, looked up) Lectin beta chain: TETTSFLITKFSPDQQNLIFQGDGYTTKEKLTLTKAVKNTVGRALYSSPIHIWDRETGNVANFVTSFTFVINAPNSYNVADGFTFFIAPVDTKPQTGGGYLGVFNSAEYDKTTQTVAVEFDTFYNAAWDPSNRDRHIGIDVNSIKSVNTKSWKLQNGEEANVVIAFNAATNVLTVSLTYPNSLEEEN Lectin alpha chain: VTSYTLSDVVSLKDVVPEWVRIGFSATTGAEYAAHEVLSWSFHSELSGTSSSKQAADA",Feeding Rate (% of Control),S. oryzae,71.4%
same,Activity against S. oryzae,S. oryzae,weakly active
